Experimental data published in patent US20230027066A1 (Urovant Sciences GmbH, priority 2019, published 2023).

Tests used:
Type in all cases: in vivo, human
[1] = Phase 3 study (75 mg), adverse events
Description: (§1) Study assessments of safety included adverse events, physical examinations, vital signs (and weight), and clinical laboratory tests
An adverse event is any untoward medical occurrence in a patient or clinical investigation patient, temporally associated with the use of a medicinal product, whether or not considered related to the medicinal product.
Adverse Events of Clinical Interest for this study included:
Safety analyses were conducted using the SAF and summarized by treatment group as treated. The treatment-emergent period is defined as the period of time from the first dose date of the double blinded Study Treatment through 28 days after the last dose of Study Treatment, or the date of initiation of another investigational agent or surgical intervention or rollover to the extension study, whichever occurs first. Safety was assessed through summaries of adverse events, the frequency of treatment discontinuations due to adverse events, and clinical laboratory evaluations.

[2] = Phase 3 study (75 mg), heart rate and blood pressure changes
From the text: as §1
Categorical changes are based on 3 consecutive post-baseline visits and patients are counted in all applicable categories (e.g., if a patient has a 12 unit increase then that patient is counted in both ≥5 and ≥10 unit columns).
Blood Pressure assessments are taken in triplicate and averaged at each visit.

[3] = system: men and women with overactive bladder; experiment: 40-week extension study (52 weeks), efficacy; details: for UUI Episodes 75% Responders at Week 52 / UUI Episodes 100% Responders at Week 52 / Urgency Episodes 50% Responders at Week 52: multiple imputation
From the text: All CFB calculations used the parent study Baseline value.

[4] = system: men and women with overactive bladder; experiment: extension study, OAB-q LF coping subscore at Week 52; details: for OAB-q LF Coping Subscore, Week 52 Mean: Full Analysis Set Extension; for OAB-q LF Coping Subscore, Change from Baseline Mean at Week 52: baseline from parent study
[5] = 3 consecutive post-baseline visits
[6] = 40-Week treatment group, Full Analysis Set Extension
[7] = 52-Week treatment group, Full Analysis Set Extension

## Cc1ccc(O)c([C@H](CCN(C(C)C)C(C)C)c2ccccc2)c1 [Tolterodine ER, tolterodine, reference compound]
[1]; 12-week study
  AE: ALT increase: 1 (0.2) n (%)
  AE: AST increase: 1 (0.2) n (%)
  AE: Atrial fibrillation: 1 (0.2) n (%)
  AE: Bilirubin increased: 1 (0.2) n (%)
  AE: Blood creatinine increased: 1 (0.2) n (%)
  AE: Blood pressure diastolic increased: 1 (0.2%) n (%)
  AE: Blood pressure increased: 8 (1.9) n (%)
  AE: Cardiac failure congestive: 0 n (%)
  AE: Cerebrovascular accident: 1 (0.2) n (%)
  AE: Chest discomfort: 0 n (%)
  AE: Chest pain: 0 n (%)
  AE: Chronic kidney disease: 0 n (%)
  AE: Constipation: 6 (1.4) n (%)
  AE: Cystitis: 1 (0.2) n (%)
  AE: Diarrhea: 9 (2.1) n (%)
  AE: Dizziness: 4 (0.9) n (%)
  AE: Drug hypersensitivity: 0 n (%)
  AE: Dry mouth: 28 (6.5) n (%)
  AE: Dysuria: 0 n (%)
  AE: Escherichia urinary-tract infection: 1 (0.2%) n (%)
  AE: Fatigue: 6 (1.4) n (%)
  AE: Glomerular filtration rate decreased: 2 (0.5) n (%)
  AE: Headache: 11 (2.6) n (%)
  AE: Hepatic enzyme increased: 1 (0.2) n (%)
  AE: Hot flush: 1 (0.2) n (%)
  AE: Hyperglycemia: 2 (0.5) n (%)
  AE: Hypertension: 11 (2.6) n (%)
  AE: Hypotension: 1 (0.2) n (%)
  AE: Nasopharyngitis: 11 (2.6) n (%)
  AE: Nausea: 5 (1.2) n (%)
  AE: Pollakiuria: 0 n (%)
  AE: Positional vertigo: 1 (0.2) n (%)
  AE: Residual urine volume increased: 6 (1.4) n (%)
  AE: Somnolence: 2 (0.5) n (%)
  AE: Syncope: 1 (0.2) n (%)
  AE: Tachycardia: 1 (0.2) n (%)
  AE: Transaminases increased: 0 n (%)
  AE: Type 2 diabetes mellitus: 0 n (%)
  AE: Urinary retention: 3 (0.7) n (%)
  AE: Urinary tract infection: 25 (5.8) n (%)
  AE: Vertigo: 1 (0.2) n (%)
[1]; patients ≥75 years
  AE: Back pain: 2.1%
  AE: Diarrhea: 4.2%
  AE: Dyspnea: 0%
  AE: Nausea: 0%
  AE: Rash: 0%
  AE: Somnolence: 2.1%
  AE: Upper respiratory tract infection: 0%
  AE: Urinary retention: 4.2%
  AE: Urinary tract infection: 8.3%
  Overall AE rate: 50.0%
[1]; safety population
  Any AE of clinical interest, %: (8.8%)
  Patients with at least one treatment emergent serious AEs, %: (2.3) %
  SAEs resulting in death, %: (0.2) %
  SAEs: Hospitalization, %: (1.9) %
  SAEs: other serious criteria, %: (0.5) %
[1]; safety population, 12-week study
  Patients with at least one treatment emergent adverse events, %: (38.6) %
[1]; tolterodine ER 4 mg once daily, 12 weeks
  Tachycardia rate: 0.2%
[1]; vibegron 75 mg or tolterodine ER 4 mg once daily, 12 weeks
  Patients with at least one Serious AE: 2.3%
[2]; [5]
  Diastolic BP categorical change from baseline ≥5 mm Hg, patients: 7.4%
  Diastolic BP categorical change from baseline ≥10 mm Hg, patients: 2.1%
  Diastolic BP categorical change from baseline ≥15 mm Hg, patients: 0.7%
  Heart Rate categorical change from baseline ≥5 bpm, patients: 6.5%
  Heart Rate categorical change from baseline ≥10 bpm, patients: 2.1%
  Heart Rate categorical change from baseline ≥15 bpm, patients: 0.5%
  Systolic BP categorical change from baseline ≥5 mm Hg, patients: 9.3%
  Systolic BP categorical change from baseline ≥10 mm Hg, patients: 4.7%
  Systolic BP categorical change from baseline ≥15 mm Hg, patients: 2.1%
[2]; Hypertensive at baseline
  Diastolic BP, 12-week change (95% CI): −1.3 (−3.8, +1.3) mm Hg
  Heart Rate, 12-week change: +1.5 beats/minute
  Systolic BP, 12-week change (95% CI): −7.6 (−10.9, −4.3) mm Hg
[2]; Normotensive at baseline
  Diastolic BP, 12-week change (95% CI): +0.5 (−0.2, +1.3) mm Hg
  Heart Rate, 12-week change: +0.2 beats/minute
  Systolic BP, 12-week change (95% CI): +1.0 (−0.1, +2.1) mm Hg
[2]; Week 12, all patients
  Diastolic BP, Mean Change from Baseline at Week 12 (SD): 0.3 (7.11) mm Hg
  Heart Rate, Mean Change from Baseline at Week 12: 0.3 beats/minute
  Systolic BP, Mean Change from Baseline at Week 12: 0.1 mm Hg
[3]; 40-Week arm
  Micturitions, Change from Baseline at Week 52, Mean: −2.6
  UUI Episodes, Change from Baseline at Week 52, Mean: −1.5
  UUI Episodes, Week 52 Mean: 1.1
  Urgency Episodes, Change from Baseline at Week 52, Mean: −3.5
  Urgency Episodes, Week 52 Mean: 3.9
[3]; 40-Week arm, Full Analysis Set Extension
  Micturitions, Week 52 Mean: 8.8
[3]; [6]
  Total urinary incontinence episodes, Change from Baseline Mean at Week 52: −1.9
  Total urinary incontinence episodes, Week 52 Mean: 1.2
[3]; 40-Week treatment group
  UUI Episodes 75% Responders at Week 52: 54.0%
  UUI Episodes 100% Responders at Week 52: 37.8%
  Urgency Episodes 50% Responders at Week 52: 50.1%
[3]; 52-Week arm
  Micturitions, Change from Baseline at Week 52, Mean: −2.3
  UUI Episodes, Change from Baseline at Week 52, Mean: −1.7
  UUI Episodes, Week 52 Mean: 1.4
  Urgency Episodes, Change from Baseline at Week 52, Mean: −3.5
  Urgency Episodes, Week 52 Mean: 4.7
[3]; 52-Week arm, Full Analysis Set Extension
  Micturitions, Week 52 Mean: 9.0
[3]; [7]
  Total urinary incontinence episodes, Change from Baseline Mean at Week 52: −2.0
  Total urinary incontinence episodes, Week 52 Mean: 1.7
[3]; 52-Week treatment group
  UUI Episodes 75% Responders at Week 52: 54.4%
  UUI Episodes 100% Responders at Week 52: 34.2%
  Urgency Episodes 50% Responders at Week 52: 51.0%
[3]; 52-Weeks arm, Full Analysis Set Extension for Incontinence
  UUI Episodes, Change from Baseline LS Mean (SE) at Week 52: −1.7 (0.17)
[3]; 52-Weeks arm, mixed model for repeated measures
  Micturitions, Change from Baseline LS Mean (SE) at Week 52: −2.0 (0.26)
[3]; 52-Weeks treatment, Full Analysis Set Extension
  Urgency episodes, Change from Baseline LS Mean (SE) at Week 52: −3.2 (0.37)
[3]; 52-Weeks treatment, Full Analysis Set Extension for Incontinence
  Total urinary incontinence episodes, Change from Baseline LS Mean (SE) at Week 52: −1.9 (0.19)
[3]; 52-week treatment, Table 97
  % Responders, 50% Reduction in Total Inc at Week 52: 62%
  % Responders, 50% Reduction in UE at Week 52: 51%
  % Responders, 75% Reduction in UUI at Week 52: 54%
  % Responders, 100% Reduction in UUI at Week 52: 34%
  Micturitions, Least Squares Means CFB at Week 52: −2.0
  Total Incontinence Episodes, Least Squares Means CFB at Week 52: −1.9
  UUI Episodes, Least Squares Means CFB at Week 52: −1.7
  Urgency Episodes (UE), Least Squares Means CFB at Week 52: −3.2
  Volume Voided, mean change from baseline at Week 52: 9 mL
[4]; 40-Week treatment group
  OAB-q LF Coping Subscore, Week 52 Mean: 82.5
  OAB-q LF Coping Subscore, Change from Baseline Mean at Week 52: 24.7
[4]; 52-Week treatment group
  OAB-q LF Coping Subscore, Week 52 Mean: 81.8
  OAB-q LF Coping Subscore, Change from Baseline Mean at Week 52: 22.1
